Results as given in article PMC5733478, “A Non-imaging High Throughput Approach to Chemical Library Screening at the Unmodified Adenosine-A3 Receptor in Living Cells” (Frontiers in Pharmacology, 2017).
Counter-ions that a name gives are not always drawn. Like-named read-outs stand apart in the source and are kept apart here.

Biological target: T1, human A3AR (Homo sapiens, UniProt P0DMS8)
T1 construct: expressed in transfected cells
T1 sequence (P0DMS8 1-318): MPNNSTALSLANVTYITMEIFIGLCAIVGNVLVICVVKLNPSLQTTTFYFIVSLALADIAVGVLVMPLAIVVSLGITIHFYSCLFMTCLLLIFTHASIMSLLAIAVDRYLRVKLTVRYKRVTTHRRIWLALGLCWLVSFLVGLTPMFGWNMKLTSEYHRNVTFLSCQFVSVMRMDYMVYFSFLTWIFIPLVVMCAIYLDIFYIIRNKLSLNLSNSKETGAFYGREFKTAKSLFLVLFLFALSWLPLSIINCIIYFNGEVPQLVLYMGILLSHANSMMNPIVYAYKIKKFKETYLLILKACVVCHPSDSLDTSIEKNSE
Assay: LOPAC library primary screen: single concentration (10 μM) inhibition of 25 nM CA200645 binding, PHERAstar FS

[1] = compounds tested at 10 µM, % of control wells (1% DMSO and 25 nM CA200645), whole live cells expressing the A3AR, mean ± SD, three experiments in duplicate

Compound | % 25 nM CA200645 binding | % 25 nM CA200645 binding [1]
CCCCCCCCCCCCCC(=O)O[C@@H]1[C@@H](C)[C@@]2(O)[C@@H](C=C(CO)C[C@]3(O)C(=O)C(C)=C[C@@H]23)[C@@H]2C(C)(C)[C@]12OC(C)=O [Phorbol 12-myristate 13-acetate] | 80.3 ± 5.6% | 
CC(C)c1c(C(=O)Nc2ccccc2)c(-c2ccccc2)c(-c2ccc(F)cc2)n1CC[C@@H](O)C[C@@H](O)CC(=O)O [Atorvastatin calcium salt trihydrate] | 97.7 ± 2.2% | 
COc1cc2ncnc(Nc3cccc(Cl)c3)c2cc1OC [Tyrphostin AG 1478] | 90.3 ± 8.9% | 
C[N+](C)(C)CCOC(=O)CBr.[Br-] [Bromoacetylcholine bromide] | 95.1 ± 8.8% | 
C[C@H](CS)C(=O)N1CCC[C@H]1C(=O)O [Captopril] | 97.2 ± 6.3% | 
O=C1NC(=O)c2cc(Nc3ccccc3)c(Nc3ccccc3)cc21 [DAPH] | 31.8 ± 9.9% | 
Cc1cccc(/C=C/c2ccccc2)n1 [SIB 1893] | 88.4 ± 9.6% | 
C[C@@H]1C(=O)NC2=Nc3cccc(Cl)c3CN21 [Quazinone] |  | 93.4 ± 5.4%
Oc1cc(-c2ccccc2)nc2nc(Cl)ccc12 | 77.8 ± 8.8% | 
CNCCCC12CCC(c3ccccc31)c1ccccc12 [Maprotiline hydrochloride] | 93.0 ± 35.9% | 
Cl.O[Si](CCCN1CCCCC1)(c1ccc(F)cc1)C1CCCCC1 (stereo not shown) | 104.8 ± 7.7% | 
CC(=O)OCC(CCn1cnc2cnc(N)nc21)COC(C)=O [Famciclovir] | 104.8 ± 9.2% | 
O=C(O)c1cccnc1Nc1cccc(C(F)(F)F)c1 [Niflumic acid] | 113.3 ± 19.3% | 
COc1cccc2c1[C@@H]1CN(CCCCn3c(=O)[nH]c4c(sc5ncc(-c6ccccc6)nc54)c3=O)C[C@@H]1CO2 [Fiduxosin hydrochloride] |  | 92.6 ± 13.4%
CCNc1nc2c(ncn2[C@H]2C[C@H](O)[C@@H](CO)O2)c(=O)[nH]1 [N2-Ethyl-2'-deoxyguanosine] | 108.7 ± 6.3% | 
Cl.c1ccc2sc(C3(N4CCCCC4)CCCCC3)cc2c1 [BTCP hydrochloride] | 94.3 ± 14.0% | 
COc1ccccc1N1CCN(CC(O)COc2cccc3ccccc23)CC1.Cl.Cl (stereo not shown) [Naftopidil dihydrochloride] | 98.6 ± 14.2% | 
CC[C@@]1(O)C(=O)OCc2c1cc1n(c2=O)Cc2cc3ccccc3nc2-1 [(S)-(+)-Camptothecin] | 99.7 ± 12.1% | 
C[C@@H]1O[C@@H](O[C@H]2C[C@@H](O)[C@]3(CO)[C@H]4[C@H](O)C[C@]5(C)[C@@H]([C@@H]6COC(=O)C6)CC[C@]5(O)[C@@H]4CC[C@]3(O)C2)[C@H](O)[C@H](O)[C@H]1O [Dihydroouabain] | 102.4 ± 11.9% | 
CCCCN(CC)c1nc(C)nc2c1c(C)cn2-c1c(C)cc(C)cc1C.Cl [CP-154526 hydrochloride] | 77.3 ± 23.1% | 
COc1cccc(OC)c1OCCNCC1CSc2ccccc2O1 (stereo not shown) [Benoxathian hydrochloride] | 95.8 ± 4.4% | 
CC(C)[C@H]1CN[C@H](C(=O)O)[C@H]1CC(=O)O [Dihydrokainic acid] | 92.4 ± 30.0% | 
CNCCCC1c2ccccc2C=Cc2ccccc21 [Protriptyline hydrochloride] | 101.6 ± 7.3% | 
Br.CN=c1nc(-c2ccccc2)n(-c2ccccc2)s1 [SCH-202676 hydrobromide] | 83.4 ± 13.1% | 
Cl.NCCc1ccc(O)cc1 [4-Hydroxyphenethylamine hydrochloride] | 98.7 ± 19.0% | 
